Activity calls are given as the source filed them.
How the values were obtained:
Leucine aminopeptidase = target: T1, Leucine aminopeptidase (Plasmodium falciparum 3D7, UniProt Q8IL11); test: P. falciparum M17LAP inhibitors, primary screen, biochemical, fluorogenic H-Leu-NHMec substrate, 1536-well (AID 1619); format: functional
T1 sequence (Q8IL11 whole entry): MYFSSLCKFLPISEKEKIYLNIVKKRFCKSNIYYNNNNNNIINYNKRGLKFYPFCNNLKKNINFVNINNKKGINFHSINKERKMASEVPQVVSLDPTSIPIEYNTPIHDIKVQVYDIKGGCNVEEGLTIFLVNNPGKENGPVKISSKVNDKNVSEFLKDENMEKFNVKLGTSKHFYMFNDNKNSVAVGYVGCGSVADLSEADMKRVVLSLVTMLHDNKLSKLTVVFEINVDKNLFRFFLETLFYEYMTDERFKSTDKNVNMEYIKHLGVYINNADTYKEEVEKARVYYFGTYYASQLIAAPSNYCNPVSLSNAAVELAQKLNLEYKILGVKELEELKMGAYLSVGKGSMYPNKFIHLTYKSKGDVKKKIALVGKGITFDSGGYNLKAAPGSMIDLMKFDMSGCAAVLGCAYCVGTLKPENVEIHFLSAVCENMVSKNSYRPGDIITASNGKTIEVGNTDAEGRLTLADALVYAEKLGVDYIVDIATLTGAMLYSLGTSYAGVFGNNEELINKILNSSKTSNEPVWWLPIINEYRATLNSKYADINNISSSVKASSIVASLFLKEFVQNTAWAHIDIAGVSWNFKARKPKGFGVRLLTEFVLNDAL

[1] = Luminescence Cell-Based Dose Response HTS to Identify Activators of Luciferase Translation or Activity in H4 […] Cells. [Related pubchem assays: 1829 (Project Summary), 1814 (Primary HTS)]; format: functional
[2] = Luminescence Cell-Based Dose Confirmation HTS to Identify Activators of 5'UTR Stem-Loop Driven Alpha-Synuclein mRNA Translation in H4 Neuroglioblastoma Cells. [Related pubchem assays: 1829 (Project Summary), 1814 (Primary HTS)]; format: functional
H4 = test: Luminescence Cell-Based Dose Response HTS to Identify Activators of 5'UTR Stem-Loop Driven Prion Protein mRNA Translation in H4 Neuroglioblastoma Cells. [Related pubchem assays: 1829 (Project Summary), 1814 (Primary HTS)]; format: functional; conditions: Homo sapiens
[3] = Luminescence Cell-Based Dose Confirmation HTS to Identify Inhibitors of Platelet Dense Granule Release. [Related pubchem assays: 1663 (Primary HTS), 1678 (Summary of Project)]; format: functional
[4] = target: Luciferin 4-monooxygenase (Photinus pyralis, UniProt P08659); test: firefly luciferase enzyme inhibitors, dose response, biochemical, luminescence (AID 1891)
Luciferin 4-monooxygenase, sequence (P08659 whole entry): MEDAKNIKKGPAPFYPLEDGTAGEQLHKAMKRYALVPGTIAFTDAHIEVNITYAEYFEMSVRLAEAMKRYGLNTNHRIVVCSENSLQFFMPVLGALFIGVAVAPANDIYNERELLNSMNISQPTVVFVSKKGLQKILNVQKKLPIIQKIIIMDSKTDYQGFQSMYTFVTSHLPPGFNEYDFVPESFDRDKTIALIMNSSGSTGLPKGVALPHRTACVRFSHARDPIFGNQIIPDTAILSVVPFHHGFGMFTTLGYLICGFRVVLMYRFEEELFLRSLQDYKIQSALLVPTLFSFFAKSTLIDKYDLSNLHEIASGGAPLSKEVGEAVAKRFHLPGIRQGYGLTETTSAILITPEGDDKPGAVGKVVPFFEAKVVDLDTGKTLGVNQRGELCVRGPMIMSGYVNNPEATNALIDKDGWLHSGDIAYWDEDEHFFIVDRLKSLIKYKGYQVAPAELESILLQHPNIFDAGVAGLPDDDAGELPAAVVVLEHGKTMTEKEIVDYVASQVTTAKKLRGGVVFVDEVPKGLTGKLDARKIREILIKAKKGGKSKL

cells [5] = format: functional, cell-based
cells [6] = format: functional, cell-based; remark: listed apart in the source
Cytochrome P450 2C19 = Cytochrome P450 2C19 (Homo sapiens, UniProt P33261); test: Cytochrome panel assay with activity outcomes. Panel member name: p450-cyp2c19 Compounds with AC50 equal or less than 10 uM are considered active; format: functional
Cytochrome P450 2C19, sequence (P33261 whole entry): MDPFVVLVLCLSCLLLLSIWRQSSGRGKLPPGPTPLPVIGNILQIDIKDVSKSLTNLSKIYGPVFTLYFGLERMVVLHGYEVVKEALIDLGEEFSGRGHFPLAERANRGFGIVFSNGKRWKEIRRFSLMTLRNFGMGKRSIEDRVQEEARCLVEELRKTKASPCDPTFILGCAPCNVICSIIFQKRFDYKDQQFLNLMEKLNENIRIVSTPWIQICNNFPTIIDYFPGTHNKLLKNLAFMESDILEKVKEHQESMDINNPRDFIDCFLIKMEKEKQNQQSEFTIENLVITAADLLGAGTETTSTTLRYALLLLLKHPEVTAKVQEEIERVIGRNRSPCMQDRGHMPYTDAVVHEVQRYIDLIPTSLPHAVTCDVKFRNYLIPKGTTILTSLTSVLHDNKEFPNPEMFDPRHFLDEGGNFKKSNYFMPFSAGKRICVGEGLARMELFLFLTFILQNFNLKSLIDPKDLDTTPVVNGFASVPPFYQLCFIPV

Cytochrome P450 3A4 = Cytochrome P450 3A4 (Homo sapiens, UniProt P08684);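 also: CYP3A4 tested as one member of a cytochrome P450 panel screen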
Cytochrome P450 3A4, sequence (P08684 whole entry): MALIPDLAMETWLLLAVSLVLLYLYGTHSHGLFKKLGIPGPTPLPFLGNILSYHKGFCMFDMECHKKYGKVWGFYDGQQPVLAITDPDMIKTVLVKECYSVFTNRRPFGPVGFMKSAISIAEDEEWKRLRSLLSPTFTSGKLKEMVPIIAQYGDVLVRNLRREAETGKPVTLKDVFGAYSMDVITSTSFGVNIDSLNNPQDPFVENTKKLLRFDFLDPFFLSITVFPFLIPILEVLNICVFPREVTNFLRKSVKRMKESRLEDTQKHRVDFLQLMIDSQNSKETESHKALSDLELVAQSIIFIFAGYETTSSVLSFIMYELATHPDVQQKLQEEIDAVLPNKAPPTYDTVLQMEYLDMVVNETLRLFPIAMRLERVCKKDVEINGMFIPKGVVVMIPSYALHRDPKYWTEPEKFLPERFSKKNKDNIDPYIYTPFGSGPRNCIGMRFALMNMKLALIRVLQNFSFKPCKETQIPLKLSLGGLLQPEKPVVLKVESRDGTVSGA

[7] = target: Glyceraldehyde-3-phosphate dehydrogenase (Homo sapiens, UniProt P04406)
Glyceraldehyde-3-phosphate dehydrogenase, sequence (P04406 whole entry): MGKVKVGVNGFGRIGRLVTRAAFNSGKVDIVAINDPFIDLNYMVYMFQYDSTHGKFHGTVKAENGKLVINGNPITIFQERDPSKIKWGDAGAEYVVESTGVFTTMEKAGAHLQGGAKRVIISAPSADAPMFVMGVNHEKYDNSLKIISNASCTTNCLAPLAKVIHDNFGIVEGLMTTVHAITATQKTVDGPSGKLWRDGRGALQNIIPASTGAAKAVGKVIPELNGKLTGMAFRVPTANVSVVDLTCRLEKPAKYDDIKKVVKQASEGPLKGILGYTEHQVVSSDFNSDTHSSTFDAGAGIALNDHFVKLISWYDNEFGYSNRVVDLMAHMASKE

[8] = control 3'UTR Renilla luciferase suppression, dose response, counter-screen for Shn3 inhibitor project, cell-based, Clone20-Shn3RL, cherry-picked (AID 624133); format: functional
[9] = Shn3 3'UTR reporter inhibitors, dose response, cell-based, Clone20 osteoblasts, firefly luciferase, cherry-picked (AID 624132); format: functional;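 also: firefly luciferase luminescence from reporter carrying the Shn3 3'UTR in osteoblasts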
Paired box protein Pax-8 = Paired box protein Pax-8 (Homo sapiens, UniProt Q06710); test: inhibitors of PAX8-driven TPO luciferase reporter, dose response, RMG-I cells, cherry-pick (AID 687027); format: functional, cell-based;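 also: luciferase reporter driven by Pax8 target thyroperoxidase promoter measured by SteadyGlo luminescence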
Paired box protein Pax-8, sequence (Q06710 whole entry): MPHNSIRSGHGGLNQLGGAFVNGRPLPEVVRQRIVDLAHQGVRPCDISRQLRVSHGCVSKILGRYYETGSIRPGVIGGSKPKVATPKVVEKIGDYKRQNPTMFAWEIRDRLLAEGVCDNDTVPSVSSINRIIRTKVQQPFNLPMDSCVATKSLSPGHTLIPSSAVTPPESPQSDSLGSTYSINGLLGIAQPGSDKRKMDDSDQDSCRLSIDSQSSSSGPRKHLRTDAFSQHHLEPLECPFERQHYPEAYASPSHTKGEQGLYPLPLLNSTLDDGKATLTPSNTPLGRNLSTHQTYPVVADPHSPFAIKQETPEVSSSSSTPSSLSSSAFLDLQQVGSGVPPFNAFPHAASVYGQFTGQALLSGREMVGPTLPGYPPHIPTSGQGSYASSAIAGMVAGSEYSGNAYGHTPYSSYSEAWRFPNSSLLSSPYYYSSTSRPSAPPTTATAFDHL

[10] = Luminescence Cell-Based Dose Retest to Confirm Inhibitors of Cancer Stem Cells. [Related pubchem assays (depositor defined):AID2717, AID2721]; format: functional; conditions: Homo sapiens
INS1 = test: beta cell apoptosis inhibitors, cytokine rescue, dose response, luminescence, retest (AID 449756); format: functional, cell-based; conditions: Rattus norvegicus;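 also: cell death triggered by IL-1 beta plus TNF-alpha plus IFN-gamma mixture; protective hits raise ATP signal compared with cytokine alone wells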

Cc1cc(NS(=O)(=O)c2ccc(NC(=O)Nc3ccc4c(c3)OCO4)cc2)no1
IC50 (Leucine aminopeptidase): 13.3 µM (active)

OC(COc1ccc2ccccc2c1Cl)CN1CCOCC1 (centres undefined)
EC50 [1]: 6.79 µM (active) | EC50 [2]: 4.79 µM (active) | EC50 (H4): 9.81 µM (active)

Cn1ccnc1Sc1nc2ccccc2nc1NS(=O)(=O)c1ccccc1
IC50 (Leucine aminopeptidase): 29.2 µM (active)

COc1ccc(NC(=O)CNC(=O)c2ccc([N+](=O)[O-])cc2)cc1
EC50 [3]: 15.4 µM (active) | EC50 [4]: > 112 µM (not active)

Cc1ccc(NC(=O)c2cc(S(=O)(=O)N3CCOCC3)cn2C)cc1F
EC50 [3]: > 112 µM (not active) | EC50 [4]: > 112 µM (not active)

CCC(Sc1nc(C)cc(O)n1)C(=O)Nc1sc2c(c1C#N)CCCC2 (centres undefined)
EC50 (cells [5]): > 350 µM (not active) | EC50 (cells [6]): > 350 µM (not active)

CCCCC[C@H](CC(=O)NO)C(=O)N[C@@H](C(=O)N1CCC[C@H]1CO)C(C)C
AC50 (Cytochrome P450 2C19): inconclusive | AC50 (Cytochrome P450 3A4): 5.01 µM (inconclusive)

COc1ccc(Cl)cc1S(=O)(=O)Nc1cnc2ccccc2c1
IC50 [7]: > 10 µM (inconclusive)

CCOC(=O)c1sc(NC(=O)CSc2nnc[nH]2)c(C#N)c1C
IC50 (Leucine aminopeptidase): 73 µM (active)

COC(=O)C1=C(c2ccc3ccccc3c2)C[C@@H]2CC[C@H]1N2C(=O)NCC1CC1
AC50 [8]: 30.6 µM (active) | AC50 [9]: 6.86 µM (active)

CCOc1ccc2c(C)c(Cl)c(=O)oc2c1
EC50 (cells [5]): > 350 µM (not active) | EC50 (cells [6]): > 350 µM (not active)

Cc1ccc2c(c1)C(O)(CC(=O)/C=C/C=C/c1ccccc1)C(=O)N2 (centres undefined)
EC50 [1]: 11.8 µM (active) | EC50 [2]: 17 µM (active) | EC50 (H4): > 120 µM (not active)

C[C@@H]1CCCCO[C@@H](CN(C)C(=O)C2CCCCC2)[C@H](C)CN([C@@H](C)CO)C(=O)c2cc(NS(=O)(=O)c3ccc(Cl)cc3)ccc2O1
AC50 (Paired box protein Pax-8): 9.05 µM (active)

C[C@@H]1CN([C@@H](C)CO)C(=O)Cc2cc(NC(=O)Nc3ccc(C(F)(F)F)cc3)ccc2O[C@H]1CN(C)S(=O)(=O)c1ccc(F)cc1
AC50 (Paired box protein Pax-8): 9.39 µM (active)

CCN1C[C@]2(C)CC[C@H](OC)[C@@]34[C@@H]2[C@H](OC(C)=O)C2(OCO[C@@]25C[C@@H](OC)[C@H]2C[C@@]3(O)[C@H]5[C@@H]2OC)[C@H]14
AC50 (Cytochrome P450 2C19): inconclusive | AC50 (Cytochrome P450 3A4): 15.8 µM (inconclusive)

Cc1cc(O)nc(N/N=C/c2ccccn2)n1
EC50 (cells [5]): 33.1 µM (active) | EC50 (cells [6]): 40.4 µM (active) | AC50 [10]: 2.89 µM (active) | AC50 (INS1): 1.37 µM (active)

O=C(O)c1cc(N/N=C/c2ccc(OCc3ccccc3)cc2)ccc1Cl
IC50 (Leucine aminopeptidase): 20 µM (active)

CC1=NNC(=O)C1CC(=O)N/N=C(\C)c1ccco1 (centres undefined)
IC50 (Leucine aminopeptidase): 12.3 µM (active)

Cc1ccc(C)n1-c1ccc(S(N)(=O)=O)cc1
IC50 [7]: > 100 µM (not active)

O=C(NCCCO)c1cc(-c2cc(F)c(Cl)cc2Cl)n[nH]1
IC50 [7]: > 10 µM (inconclusive)
